Source: patent publication US9789082B2, “Somatostatin receptor subtype 4 (SSTR4) agonists” (Centrexion Therapeutics Corporation, priority 2013, dated 2017)

Key:
[1] = biological target: human Somatostatin 4 receptor (SSTR4) (Homo sapiens (Human), UniProt P31391); test: cAMP assay with human somatostatin 4 receptor (hSSTR4 expressing H4 cells); assay type: cell-based; details: cAMP assay, read-out: SSTR4 agonism EC50
Description: Camp Assay Method Description for cAMP Assay with Human Somatostatin 4 Receptor
The activation of the SSTR4 receptor (Gi coupled) causes an inhibition of intracellular cAMP after stimulation with Forskolin, which can be quantifiable by use of a suitable assay Kit and an adequate plate reader. This technique is used to characterize pharmacological effects of the SSTR4 receptor agonists by use of hSSTR4 expressing H4 cells.
Compounds are dissolved and diluted in DMSO. The final test solution contains 1% DMSO. […] Cells are centrifuged and suspended in assay buffer (incl. 1:100 diluted Alexa antibody).
For the assay 5 μl of a cell suspension (approximately 5000 cells/well)—incl. Alexa antibody (diluted 1:100) are added into a 384 well MTP microtitre plate excepting one row or column (depending on the plate layout), which is reserved for the standard curve. Then 2 μl of compound sample is added as concentration response curve (e.g. 1e-5 M to 6e-10 M), usually in triplicates. Each assay contains incubations with vehicle controls instead of compound as controls for non-inhibited cAMP generation (100% CTL; ‘high values’) and incubations with 1 μM Somatosatin as controls for full inhibition and background (0% CTL; […]). […] Then the plates are shaken briefly and incubated for 60 min at room temperature. After 60 min 10 μl of the detection mix is added into all wells followed by an additional incubation period of 1 h. The plates are read in a suitable plate reader.
From this ratio, cAMP concentrations are calculated from standard curve and the EC50 is estimated by least square curve fit program.
The EC50 values were obtained with the aid of the above described cAMP ASSAY.

[2] = Metabolic stability in pooled human liver microsomes (half-life); assay type: in vitro ADME; details: 1 μM test compound; for half-life at 1 μM: pooled human liver microsomes, pH 7.6, 37° C., read-out: Half-life t1/2; for Half-life t1/2: 37° C.
Description: The metabolic stability of the compounds according to the invention may be investigated as follows:
The metabolic degradation of the test compound is assayed at 37° C. with pooled human liver microsomes. The final incubation volume of 100 μl per time point contains TRIS buffer pH 7.6 at room temperature (0.1 M), magnesium chloride (5 mM), microsomal protein (1 mg/mL) and the test compound at a final concentration of 1 μM. Following a short preincubation period at 37° C., the reactions are initiated by addition of beta-nicotinamide adenine dinucleotide phosphate, reduced form (NADPH, 1 mM), and terminated by transferring an aliquot into solvent after different time points. After centrifugation (10000 g, 5 min), an aliquot of the supernatant is assayed by LC-MS/MS for the amount of parent compound. The half-life is determined by the slope of the semi-logarithmic plot of the concentration-time profile.

human Somatostatin 4 receptor (SSTR4), sequence (P31391 whole entry): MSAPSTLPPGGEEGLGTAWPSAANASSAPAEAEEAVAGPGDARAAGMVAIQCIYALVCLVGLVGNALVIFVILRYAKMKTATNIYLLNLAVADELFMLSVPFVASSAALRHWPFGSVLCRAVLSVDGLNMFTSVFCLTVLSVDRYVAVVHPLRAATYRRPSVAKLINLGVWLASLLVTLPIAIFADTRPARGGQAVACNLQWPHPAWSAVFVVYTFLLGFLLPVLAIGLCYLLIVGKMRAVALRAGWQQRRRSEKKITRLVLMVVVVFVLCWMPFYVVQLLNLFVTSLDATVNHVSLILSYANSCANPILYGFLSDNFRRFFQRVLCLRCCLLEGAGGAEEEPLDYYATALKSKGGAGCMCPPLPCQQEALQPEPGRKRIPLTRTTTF

Row | Structure (SMILES) | EC50 [1] [nM] | half-life at 1 μM [2] [h] | Half-life t1/2 [2] [h]
1 | O=C(NC1(Cc2ccccc2C(F)(F)F)CC1)[C@H]1[C@@H]2CNC[C@@H]21 [Example 2] | 56.5 | > 2.17 | –
2 | CC(C)(NC(=O)[C@H]1[C@@H]2CNC[C@@H]21)c1ccc(Cl)c(Cl)c1.Cl [Example 8] | 2.8 | > 2.17 | –
3 | C[C@H](NC(=O)[C@H]1[C@@H]2CNC[C@@H]21)c1cccc2ccccc12 [Example 10] | 10.7 | > 2.17 | –
4 | CC(C)(COc1ccccc1C(F)(F)F)NC(=O)[C@H]1[C@@H]2CNC[C@@H]21.Cl [Example 12] | 0.6 | > 2.17 | –
5 | Cc1cc(F)ccc1OCC(C)(C)NC(=O)[C@H]1[C@@H]2CNC[C@@H]21.Cl [Example 13] | 2.4 | > 2.17 | –
6 | Cc1cc(Cl)ccc1OCC(C)(C)NC(=O)[C@H]1[C@@H]2CNC[C@@H]21.Cl [Example 15] | 7.8 | > 2.17 | –
7 | Cc1cc(C#N)ccc1OCC(C)(C)NC(=O)[C@H]1[C@@H]2CNC[C@@H]21.Cl [Example 17] | 1 | > 2.17 | –
8 | CC(C)(COc1cccnc1C(F)(F)F)NC(=O)[C@H]1[C@@H]2CNC[C@@H]21.Cl [Example 18] | 20.4 | > 2.17 | –
9 | CC(C)(NC(=O)[C@H]1[C@@H]2CNC[C@@H]21)c1cnc2ccccn12.Cl [Example 20] | 8.5 | > 2.17 | –
10 | CC(C)(NC(=O)[C@H]1[C@@H]2CNC[C@@H]21)c1ncccc1C(F)(F)F.Cl [Example 23] | 17.5 | > 2.17 | –
11 | CC(C)(NC(=O)[C@H]1[C@@H]2CNC[C@@H]21)C1CCc2ccccc2O1.Cl (some centres unmarked) [Example 28] | 11.3 | > 2.17 | –
12 | CC(C)(NC(=O)[C@H]1[C@@H]2CNC[C@@H]21)c1nc(C(F)(F)F)c2ccccn12.Cl [Example 31] | 1.9 | > 2.17 | –
13 | Cn1nc(C(C)(C)NC(=O)[C@H]2[C@@H]3CNC[C@@H]32)c2cccnc21 [Example 32] | 9.9 | > 2.17 | –
14 | Cc1cc(C(C)(C)NC(=O)[C@H]2[C@@H]3CNC[C@@H]32)c2ccccc2n1 [Example 33] | 4.6 | > 2.17 | –
15 | Cc1ccncc1OCC(C)(C)NC(=O)[C@H]1[C@@H]2CNC[C@@H]21 [Example 38] | 27.8 | > 2.17 | –
16 | CCc1ccccc1OCC(C)(C)NC(=O)[C@H]1[C@@H]2CNC[C@@H]21.Cl [Example 39] | 3 | > 2.17 | –
17 | CC(C)(COc1ccccc1Cl)NC(=O)[C@H]1[C@@H]2CNC[C@@H]21.Cl [Example 42] | 14.7 | > 2.17 | –

Row | Structure (SMILES) | EC50 [1] [nM] | half-life at 1 μM [2] [h] | Half-life t1/2 [2] [h]
18 | Cc1cccc(OCC(C)(C)NC(=O)[C@H]2[C@@H]3CNC[C@@H]32)c1 [Example 43] | 185 | > 2.17 | –
19 | Cc1ncccc1OCC(C)(C)NC(=O)[C@H]1[C@@H]2CNC[C@@H]21.Cl [Example 44] | 361 | > 2.17 | –
20 | Cc1nc(C(C)(C)NC(=O)[C@H]2[C@@H]3CNC[C@@H]32)n2ccccc12 [Example 45] | 1.2 | > 2.17 | –
21 | Cc1cc(F)cnc1OCC(C)(C)NC(=O)[C@H]1[C@@H]2CNC[C@@H]21 [Example 48] | 3.7 | > 2.17 | –
22 | CC(C)(NC(=O)[C@H]1[C@@H]2CNC[C@@H]21)c1noc2ccccc12 [Example 51] | 7.4 | > 2.17 | –
23 | CC(C)(COc1ncccc1C(F)(F)F)NC(=O)[C@H]1[C@@H]2CNC[C@@H]21 [Example 52] | 2.4 | > 2.17 | –
24 | CC(C)(COc1cnc(Cl)c2ccccc12)NC(=O)[C@H]1[C@@H]2CNC[C@@H]21 [Example 53] | 9.8 | 0.783 | –
25 | CC(C)(COc1cnccc1C1CC1)NC(=O)[C@H]1[C@@H]2CNC[C@@H]21 [Example 57] | 16.3 | > 2.17 | –
26 | CC(C)(COc1nnccc1C(F)(F)F)NC(=O)[C@H]1[C@@H]2CNC[C@@H]21 [Example 58] | 22 | > 2.17 | –
27 | Cc1ccccc1OCC(C)NC(=O)[C@H]1[C@@H]2CNC[C@@H]21.Cl (some centres unmarked) [Example 59] | 64.3 | > 2.17 | –
28 | CC(C)(COc1ncccc1C1CC1)NC(=O)[C@H]1[C@@H]2CNC[C@@H]21 [Example 64] | 2 | > 2.17 | –
29 | Cc1nc(C(C)NC(=O)[C@H]2[C@@H]3CNC[C@@H]32)c2cccc(C)c2n1 (some centres unmarked) [Example 162] | 128 | – | –
30 | Cc1ccc(C(C)(C)NC(=O)[C@H]2[C@@H]3CNC[C@@H]32)c(C)n1 [Example 172] | 520 | – | –
31 | Cc1cc(C)c(C(C)(C)NC(=O)[C@H]2[C@@H]3CNC[C@@H]32)cn1 [Example 177] | 9.1 | – | –
32 | Cc1cccn2c(C(C)(NC(=O)[C@H]3[C@@H]4CNC[C@@H]43)C3CC3)ncc12 (some centres unmarked) [Example 183] | 9.9 | – | –
33 | Cc1cccn2c(C(C)(C)NC(=O)[C@H]3[C@@H]4CNC[C@@H]43)ccc12 [Example 184] | 0.4 | – | –

Second part, the compound after the results:

Row | EC50 [1] [nM] | half-life at 1 μM [2] [h] | Half-life t1/2 [2] [h] | Structure (SMILES)
34 | 19.2 | > 2.17 | – | CC(NC(=O)[C@H]1[C@@H]2CNC[C@@H]21)c1nn(C)c2ccccc12 (single isomer, unassigned) [Example 113]
35 | 2.1 | > 2.17 | – | CC(NC(=O)[C@H]1[C@@H]2CNC[C@@H]21)c1nn(C)c2c(Cl)cccc12 (single isomer, unassigned) [Example 116]
36 | 3.2 | > 2.17 | – | Cc1cccc2c(C(C)NC(=O)[C@H]3[C@@H]4CNC[C@@H]43)nn(C)c12 (single isomer, unassigned) [Example 119]
37 | 76.9 | > 2.17 | – | Cl.Cn1nccc1OCC(C)(C)NC(=O)[C@H]1[C@@H]2CNC[C@@H]21 [Example 60]
38 | 29.8 | – | >2.17 | Cc1cc(C2CC2)ccc1OCC(C)(C)NC(=O)[C@H]1[C@@H]2CNC[C@@H]21 [Example 65]
39 | – | > 2.17 | – | Cn1nc(C(C)(C)NC(=O)[C@H]2[C@@H]3CNC[C@@H]32)c2cccc(Cl)c21 [Example 106]
40 | – | > 2.17 | – | Cc1cccc2c(C(C)(C)NC(=O)[C@H]3[C@@H]4CNC[C@@H]43)n(C)nc12 [Example 108]
41 | – | – | >2.17 | CC(C)(NC(=O)[C@H]1[C@@H]2CNC[C@@H]21)c1n[nH]c2c(C(F)(F)F)cccc12 [Example 110]
42 | 313 | – | – | O=C(NC1(c2nc3ccc(Cl)cc3[nH]2)CCOC1)[C@H]1[C@@H]2CNC[C@@H]21 (some centres unmarked) [Example 169]
43 | 237 | – | – | CC(C)(NC(=O)[C@H]1[C@@H]2CNC[C@@H]21)C1COc2ccccc21 (some centres unmarked) [Example 173]
44 | 1.2 | – | – | Cn1nc(C(C)(C)NC(=O)[C@H]2[C@@H]3CNC[C@@H]32)c2c1CCCC2 [Example 176]
45 | 22.4 | – | – | CC(C)(NC(=O)[C@H]1[C@@H]2CNC[C@@H]21)C1CCOc2ccccc21 (some centres unmarked) [Example 178]
46 | 41.3 | – | – | CC(C)(NC(=O)[C@H]1[C@@H]2CNC[C@@H]21)c1ncc2n1CCCC2 [Example 181]
47 | 68.5 | – | – | Cc1cccn2c(C3(NC(=O)[C@H]4[C@@H]5CNC[C@@H]54)CCOCC3)ncc12 [Example 182]
